Source: patent US20210196779A1, “Compositions and Methods for Treating Steroid Hormone-Related Diseases or Disorders” (YALE UNIVERSITY, priority 2018, published 2021)

Tests used:
[1] = biological target: glucocorticoid receptor (GR) (Homo sapiens, UniProt P04150); assay: PSA-luciferase reporter assay, DEX induced, 22RV1 cells; type: cell-based; design: endogenous in cells; conditions: 22RV1 PSA-luciferase reporter cells
Experimental: (§1) Reporter cells were treated with herbal extracts at 30, 100, 300, and 1000 μg/ml for 24 h in a 37° C.-CO2 incubator. DHT (25 nM) was used to stimulate androgen receptor activity. Dexamethasone (50 nM) was used to stimulate glucocorticoid receptor activity Cells were lysed using luciferase lysis buffer after which luciferase buffer with luciferin was added to generate luminescence. Luminescence was recorded using a luminescence microplate reader.

[2] = test system: H3K14 acetylation; assay: Western blot, MCF7 and 22RV1 cells, H3K14 acetylation; type: cell-based; conditions: MCF7 and 22RV1 cells (FIGS. 11A-11B), 24 h
Experimental: (§2) Western blot analysis was used to determine the protein expression using protein specific antibodies. β-actin or histone 3 was used to normalize protein loading.
(§3) Total cell lysis was conducted using 2×SDS sample buffer (62.5 mM Tris-HCl, 2% SDS, 10% glycerol, 50 mM DTT, and 0.05% bromophenol blue). The samples were sonicated for 10 s to shear DNA. Cell nuclei were isolated using Tris buffer saline with 0.4% NP40. Cell extracts were then electrophoresed through 10% SDS-polyacrylamide gels and transferred to 0.2 μm nitrocellulose membranes (Bio-Rad Laboratories, Hercules, Calif.) with a Miniprotein II transferring apparatus (Bio-Rad). The membranes were blocked and probed in TBS-T buffer (1×TBS buffer, 0.2% Tween 20) containing 5% non-fat milk. […] Enhanced chemiluminescence reagents (Perkin-Elmer Life Science Products, Boston, Mass.) were used to visualize the immunoreactive bands and the densities of protein bands were scanned analyzed using ImageJ software from the NIH.

[3] = test system: MDA-MB-453 cells; assay: Cell growth assay, MDA-MB-453 breast cancer cells; type: cell-based; conditions: 4 days
Experimental: MCF7, T47D, MDA-MB-453, MDA-MB-231 breast cancer cells were grown in corning T75 cell culture flask in RPMI1640 medium supplemented with 5% FBS, 50 μg/ml Kanamycin in a 37° C., 5% CO2 incubator.
20,000 cells in 1 ml of medium (phenol red free RPMI1640, 5% charcoal-dialysis FBS, 50 μg/ml Kanamyacin) were seeded per well of a 24-well plate and incubated in a 37° C. incubator with 5% CO2 overnight. Different concentrations of herbal extract were added to each well in order to have final concentrations from 50 μg/ml to 500 μg/ml. For prostate cancer cells, DHT (25 nM) was used to stimulate androgen receptor activity. For glucocorticoid receptor overexpressed LNCaP cells, dexamethasone (50 nM) was used to stimulate glucocorticoid receptor activity. For all breast cancer cells, E2 (10 nM) was used to stimulate ER activity. Control medium without any steroid hormone was used as a control setting. After 4 days of incubation, cells were fixed and stained for 2 h with 0.5% methylene blue in 50% ethanol, followed by washing with tap water to remove unbound dye. Plates were air dried and then cells were dissolved in 1% sarkosyl (sodium lauroyl sarcosinate) by shaking at room temperature for 3 h. Cell growth was quantified based on the amount of methylene blue adsorbed by the cells as measured by a spectrophotometer (Molecular Devices) at 595 nm. […]

[4] = test system: CD47; assay: Western blot, MCF7 cells, CD47; type: cell-based; conditions: MCF7 cells (FIG. 10)
Experimental: as §3, with “milk. Monoclonal rabbit anti-AR (1:5000), was used to detect androgen receptor (Abcam #133273), Glucocorticoid Receptor (D8H2) XP® Rabbit mAb #3660, ERa Antibody (F-10): sc-8002, BRD4 (E2A7X) Rabbit mAb #13440, Brd2 (D89B4) Rabbit mAb #5848, PARP (46D11) Rabbit mAb #9532, Acetyl-Histone H3 (Lys27) (D5E4) XP® Rabbit mAb #8173 and a monoclonal actin antibody diluted 1:2500 (Sigma, St. Louis, Mo.) was used to detect β-actin as the internal control to confirm equal protein loading.” for “milk.”

[5] = Body weight of nude mice during the treatment; type: in vivo; conditions: equivalent dose to Y1830 (2.2 mg/kg, PO, B.I.D.), 11 days
Experimental: (§4) 22RV1 prostate cancer cells 5×10^6 cells in 100 μl Matrigel were injected subcutaneously into 10 week old male NCR nude mice. When 22RV1 tumor reached 5 mm×5 mm, mice were orally fed with Y1830 (water extract, 500 mg/kg, PO, B.I.D, N5) and RGA (or the fraction comprising RGA) (equivalent dose to Y1830: 2.2 mg/kg, PO, B.I.D.) for 11 days. Tumor volume was estimated by using the formula length×width^2/2.
(§5) When tumors reached 5 mm×5 mm, Y1830 water extract (500 mg/kg, BID, PO) and RGA (or the fraction comprising RGA) at equivalent dose to Y1830 were used to treat animals for 11 days. […] Therefore, it is further concluded that compounds other than molecules in RGA containing fraction of Y1830 total extract may also have anti-tumor activity or prevent tumor to develop drug resistant.

[6] = test system: Brd4; assay: Western blot, MCF7 and 22RV1 cells, Brd4; type: cell-based; conditions: MCF7 (with or without E2) or 22RV1 (with or without DHT), 24 h
Experimental: as §2, §3

[7] = test system: 22RV1 tumor; assay: Inhibition of 22RV1 prostate cancer growth in nude mice; type: in vivo; conditions: equivalent dose to Y1830 (2.2 mg/kg, PO, B.I.D.), 11 days
Experimental: as §4, §5

[8] = biological target: T1, GR (stimulated with DEX) (Homo sapiens, UniProt P04150); assay: GR driven luciferase activity (DEX) in LNCaP-GR cells; type: cell-based; conditions: LNCaP-GR luciferase reporter cells
T1 construct: expressed in transfected cells; host or cells: LNCaP (LNCaP-GR)
Experimental: Both LNCaP and GR overexpressing LNCaP cells were carrying luciferase reporters with AR response elements.
as §1

[9] = test system: PSA mRNA; assay: qRT-PCR of PSA mRNA in 22RV1 cells; type: cell-based, Human; conditions: 22RV1 cells treated overnight, normalized to beta-actin
Experimental: FIGS. 4C-4D are graphs showing the effect of Y1830, RG (or the fraction comprising RG) and RGA (or the fraction comprising RGA) on the mRNA of PSA (FIG. 4C) and KLK2 (FIG. 4D). 22RV1 cells were treated with Y1830, RGA or RG overnight and mRNA was extracted for qRT-PCR to determine the mRNA expression level of PSA and KLK2 as normalized to beta-actin.
RNA was extracted from herb treated cells using the Roche High Pure RNA isolation kit. cDNA was then generated from RNA samples using a Bio-rad iScript Advanced cDNA synthesis kit for RT-qPCR. qPCR was performed using human NRF2, H01, NQO1 and β-actin primers (Table 1) and iTaq™ Universal SYBR® Green Supermix in a CFX PCR machine (Bio-rad). Relative mRNA expression was calculated based on the change of the threshold cycle relative to the internal control, β-actin, using a standard curve generated by purified PCR products.

Sequence of glucocorticoid receptor (GR) (P04150 whole entry): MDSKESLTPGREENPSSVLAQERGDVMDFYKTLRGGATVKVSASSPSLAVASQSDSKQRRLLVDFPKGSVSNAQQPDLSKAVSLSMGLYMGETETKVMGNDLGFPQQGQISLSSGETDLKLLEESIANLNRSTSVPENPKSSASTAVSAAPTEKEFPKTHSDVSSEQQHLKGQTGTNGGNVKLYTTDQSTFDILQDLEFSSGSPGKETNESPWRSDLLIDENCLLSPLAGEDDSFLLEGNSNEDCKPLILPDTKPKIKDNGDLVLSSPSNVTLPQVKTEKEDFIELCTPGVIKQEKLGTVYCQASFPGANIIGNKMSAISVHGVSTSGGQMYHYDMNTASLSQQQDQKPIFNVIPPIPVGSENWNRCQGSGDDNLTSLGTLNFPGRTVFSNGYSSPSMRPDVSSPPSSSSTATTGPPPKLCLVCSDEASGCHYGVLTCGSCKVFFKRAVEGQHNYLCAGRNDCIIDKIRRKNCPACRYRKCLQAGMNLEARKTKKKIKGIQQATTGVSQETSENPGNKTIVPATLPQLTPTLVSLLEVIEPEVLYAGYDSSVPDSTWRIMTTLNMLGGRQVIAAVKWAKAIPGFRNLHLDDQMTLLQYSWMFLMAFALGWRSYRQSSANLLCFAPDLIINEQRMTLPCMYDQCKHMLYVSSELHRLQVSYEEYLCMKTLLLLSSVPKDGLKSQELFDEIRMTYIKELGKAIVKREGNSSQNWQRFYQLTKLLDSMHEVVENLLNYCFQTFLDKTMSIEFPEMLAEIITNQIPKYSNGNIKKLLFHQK
T1 sequence (P04150 whole entry): as above

inhibitory effect on DEX induced transcriptional response [1] | inhibition of DEX induced transcriptional response [8] | Compound | H3K14 acetylation [2] | inhibition of growth of double negative MDA-MB-453 cells [3] | CD47 expression [4] | animal body weight loss [5] | Brd4 protein expression [6] | inhibition on 22RV1 tumor growth [7] | inhibition of mRNA expression of PSA [9]
inhibitory effect | effectively inhibit | CC(=O)OCC1OC(Oc2cc3c(c(O)c2C)C(=O)c2ccc(O)cc2C3=O)C(OC2OC(C)C(O)C(O)C2O)C(O)C1O [RGA, 1,3,6-Trihydroxy-2-methyl-9,10-anthracenedione 3-O-[α-L-Rhamnopyranosyl-(1→2)-6-O-acetyl-β-D-glucopyranoside]] | did not have a large impact | inhibited the growth | downregulation | did not cause animal body weight loss | decreased | significant inhibition on 22RV1 tumor growth from day 2 to day 6 | –
– | – | Cc1c(OC2OC(CO)C(O)C(O)C2OC2OC(C)C(O)C(O)C2O)cc2c(c1O)C(=O)c1ccc(O)cc1C2=O [RG, 1,3,6-Trihydroxy-2-methyl-9,10-anthracenedione 3-O-[α-L-Rhamnopyranosyl-(1→2)-β-D-glucopyranoside]] | – | – | – | – | – | – | did not demonstrate this level of activity
